Source: US11274083B2, “Substituted thiophenyl uracils, salts thereof and the use thereof as herbicidal agents” (Syngenta Crop Protection AG, priority 2017, dated 2022)

What was measured:
Format in all cases: in vivo
Abutilon theophrasti [1] = assay: Herbicidal action post-emergence, greenhouse pot test
Outline: (§1)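 Sandy loam pots, greenhouse; one-leaf stage (2–3 wk post-sowing); WP/EC spray as aqueous suspension/emulsion + 0.5% additive, 600 L/ha; rate ≤80 g/ha; visual % efficacy vs untreated at ~3 wk.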

Amaranthus retroflexus [2] = assay: as above
Outline: as §1

Pharbitis purpurea [3] = assay: as above
Outline: as §1

Polygonum convolvulus [4] = assay: as above
Outline: as §1

Setaria viridis [5] = assay: as above
Outline: as §1

Stellaria media [6] = assay: as above
Outline: as §1

Veronica persica [7] = assay: as above
Outline: as §1

Viola tricolor [8] = assay: as above
Outline: as §1

Glycine max = assay: Crop compatibility post-emergence, greenhouse pot test; conditions: application rate 5 g/ha
Outline: (§2)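 Sandy loam pots, greenhouse; one-leaf stage, 2–3 wk post-sowing; WP or EC, aq. spray on green parts, 0.5% additive, 600 L/ha; ~3 wk; visual score % vs untreated (0 = control-like, 100 = dead).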

Oryza sativa = assay: as above
Outline: as §2

Triticum aestivum = assay: as above
Outline: as §2

Zea mays = assay: as above
Outline: as §2

Digitaria sanguinalis = assay: Herbicidal action post-emergence, greenhouse pot test; conditions: application rate 20 g/ha
Alopecurus myosuroides [9] = assay: as above; conditions: application rate 20 g/ha, scored visually after about 3 weeks vs untreated controls
Outline: as §1

Echinochloa crus-galli [10] = assay: as above
Outline: as §1

Matricaria inodora [11] = assay: as above
Outline: as §1

Lolium rigidum [12] = assay: as above
Outline: as §1

Abutilon theophrasti [13] = assay: Herbicidal action pre-emergence, greenhouse pot test; conditions: application rate 320 g/ha
Outline: (§3)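 Pre-emergence soil-surface spray, WP/EC formulations in water plus 0.5% additive, 600 L/ha spray volume; rate 320 g/ha or lower. Greenhouse ~3 wk. Visual % efficacy vs untreated (100% = plants dead, 0% = like control).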

Alopecurus myosuroides [14] = assay: as above; conditions: application rate 320 g/ha
Outline: as §3

Amaranthus retroflexus [15] = assay: as above; conditions: application rate 80 g/ha
Outline: as §3

Avena fatua = assay: as above; conditions: application rate 320 g/ha
Outline: as §3

Cyperus esculentus = assay: as above; conditions: application rate 320 g/ha
Outline: as §3

Echinochloa crus-galli [16] = assay: as above; conditions: application rate 320 g/ha
Outline: as §3

Hordeum murinum = assay: as above; conditions: application rate 320 g/ha
Outline: as §3

Lolium rigidum [17] = assay: as above; conditions: application rate 320 g/ha
Outline: as §3

Pharbitis purpurea [18] = assay: as above; conditions: application rate 320 g/ha
Outline: as §3

Polygonum convolvulus [19] = assay: as above; conditions: application rate 320 g/ha
Outline: as §3

Setaria viridis [20] = assay: as above; conditions: application rate 320 g/ha
Outline: as §3

Stellaria media [21] = assay: as above; conditions: application rate 320 g/ha
Outline: as §3

Veronica persica [22] = assay: as above; conditions: application rate 320 g/ha
Outline: as §3

Viola tricolor [23] = assay: as above; conditions: application rate 320 g/ha
Outline: as §3

Matricaria inodora [24] = assay: as above; conditions: application rate 320 g/ha

CCCCC(Sc1cc(-n2c(=O)cc(C(F)(F)F)n(C)c2=O)c(F)cc1Cl)C(=O)OCCC(=O)OCc1ccccc1 (centres unmarked) [I.47-6]
20%: Glycine max (Efficacy in %) (Glycine max) | Oryza sativa (Efficacy in %) (Oryza sativa; application rate 20 g/ha) | Triticum aestivum (Efficacy in %) (Triticum aestivum; application rate 5 g/ha) | Zea mays (Efficacy in %) (Zea mays; application rate 20 g/ha)
100%: Abutilon theophrasti (Efficacy in %) (Abutilon theophrasti [1]; application rate 70 g/ha) | Amaranthus retroflexus (Efficacy in %) (Amaranthus retroflexus [2]; application rate 20 g/ha) | Pharbitis purpurea (Efficacy in %) (Pharbitis purpurea [3]; application rate 20 g/ha) | Polygonum convolvulus (Efficacy in %) (Polygonum convolvulus [4]; application rate 20 g/ha) | Setaria viridis (Efficacy in %) (Setaria viridis [5]; application rate 20 g/ha) | Veronica persica (Efficacy in %) (Veronica persica [7]; application rate 20 g/ha) | Viola tricolor (Efficacy in %) (Viola tricolor [8]; application rate 20 g/ha)
80%: Stellaria media (Efficacy in %) (Stellaria media [6]; application rate 20 g/ha) | Digitaria sanguinalis (Efficacy in %) (Digitaria sanguinalis)

CCC(Sc1cc(-n2c(=O)cc(C(F)(F)F)n(C)c2=O)c(F)cc1Cl)C(=O)OCCC(=O)OCc1ccccc1 (centres unmarked) [I.2-6]
0%: Zea mays (Efficacy in %) (Zea mays; application rate 5 g/ha)
80%: Alopecurus myosuroides (Efficacy in %) (Alopecurus myosuroides [9]) | Digitaria sanguinalis (Efficacy in %) (Digitaria sanguinalis)
10%: Oryza sativa (Efficacy in %) (Oryza sativa; application rate 20 g/ha)
20%: Glycine max (Efficacy in %) (Glycine max) | Triticum aestivum (Efficacy in %) (Triticum aestivum; application rate 20 g/ha)
100%: Abutilon theophrasti (Efficacy in %) (Abutilon theophrasti [1]; application rate 70 g/ha) | Amaranthus retroflexus (Efficacy in %) (Amaranthus retroflexus [2]; application rate 20 g/ha) | Echinochloa crus-galli (Efficacy in %) (Echinochloa crus-galli [10]; application rate 20 g/ha) | Matricaria inodora (Efficacy in %) (Matricaria inodora [11]; application rate 20 g/ha) | Pharbitis purpurea (Efficacy in %) (Pharbitis purpurea [3]; application rate 20 g/ha) | Polygonum convolvulus (Efficacy in %) (Polygonum convolvulus [4]; application rate 20 g/ha) | Setaria viridis (Efficacy in %) (Setaria viridis [5]; application rate 20 g/ha) | Stellaria media (Efficacy in %) (Stellaria media [6]; application rate 20 g/ha) | Veronica persica (Efficacy in %) (Veronica persica [7]; application rate 20 g/ha) | Viola tricolor (Efficacy in %) (Viola tricolor [8]; application rate 20 g/ha)

CC(Sc1cc(-n2c(=O)cc(C(F)(F)F)n(C)c2=O)c(F)cc1Cl)C(=O)OCC(=O)N(C)C (centres unmarked) [I.1-241]
90%: Lolium rigidum (Efficacy in %) (Lolium rigidum [12]; application rate 80 g/ha)
10%: Glycine max (Efficacy in %) (Glycine max) | Oryza sativa (Efficacy in %) (Oryza sativa; application rate 5 g/ha) | Triticum aestivum (Efficacy in %) (Triticum aestivum; application rate 5 g/ha)
100%: Abutilon theophrasti (Efficacy in %) (Abutilon theophrasti [1]; application rate 80 g/ha) | Amaranthus retroflexus (Efficacy in %) (Amaranthus retroflexus [2]; application rate 80 g/ha) | Echinochloa crus-galli (Efficacy in %) (Echinochloa crus-galli [10]; application rate 80 g/ha) | Matricaria inodora (Efficacy in %) (Matricaria inodora [11]; application rate 80 g/ha) | Pharbitis purpurea (Efficacy in %) (Pharbitis purpurea [3]; application rate 80 g/ha) | Polygonum convolvulus (Efficacy in %) (Polygonum convolvulus [4]; application rate 80 g/ha) | Setaria viridis (Efficacy in %) (Setaria viridis [5]; application rate 80 g/ha) | Stellaria media (Efficacy in %) (Stellaria media [6]; application rate 80 g/ha) | Veronica persica (Efficacy in %) (Veronica persica [7]; application rate 80 g/ha) | Viola tricolor (Efficacy in %) (Viola tricolor [8]; application rate 80 g/ha) | Abutilon theophrasti (Efficacy in %) (Abutilon theophrasti [13]) | Alopecurus myosuroides (Efficacy in %) (Alopecurus myosuroides [14]) | Amaranthus retroflexus (Efficacy in %) (Amaranthus retroflexus [15]) | Avena fatua (Efficacy in %) (Avena fatua) | Cyperus esculentus (Efficacy in %) (Cyperus esculentus) | Echinochloa crus-galli (Efficacy in %) (Echinochloa crus-galli [16]) | Hordeum murinum (Efficacy in %) (Hordeum murinum) | Lolium rigidum (Efficacy in %) (Lolium rigidum [17]) | Pharbitis purpurea (Efficacy in %) (Pharbitis purpurea [18]) | Polygonum convolvulus (Efficacy in %) (Polygonum convolvulus [19]) | Setaria viridis (Efficacy in %) (Setaria viridis [20]) | Stellaria media (Efficacy in %) (Stellaria media [21]) | Veronica persica (Efficacy in %) (Veronica persica [22]) | Viola tricolor (Efficacy in %) (Viola tricolor [23]) | Matricaria inodora (Efficacy in %) (Matricaria inodora [24])

CNC(=O)CCOC(=O)C(C)Sc1cc(-n2c(=O)cc(C(F)(F)F)n(C)c2=O)c(F)cc1Cl (centres unmarked) [I.1-152]
20%: Glycine max (Efficacy in %) (Glycine max) | Triticum aestivum (Efficacy in %) (Triticum aestivum; application rate 5 g/ha)
100%: Abutilon theophrasti (Efficacy in %) (Abutilon theophrasti [1]; application rate 20 g/ha) | Amaranthus retroflexus (Efficacy in %) (Amaranthus retroflexus [2]; application rate 20 g/ha) | Echinochloa crus-galli (Efficacy in %) (Echinochloa crus-galli [10]; application rate 20 g/ha) | Matricaria inodora (Efficacy in %) (Matricaria inodora [11]; application rate 20 g/ha) | Pharbitis purpurea (Efficacy in %) (Pharbitis purpurea [3]; application rate 20 g/ha) | Polygonum convolvulus (Efficacy in %) (Polygonum convolvulus [4]; application rate 20 g/ha) | Setaria viridis (Efficacy in %) (Setaria viridis [5]; application rate 20 g/ha) | Stellaria media (Efficacy in %) (Stellaria media [6]; application rate 20 g/ha) | Veronica persica (Efficacy in %) (Veronica persica [7]; application rate 20 g/ha) | Viola tricolor (Efficacy in %) (Viola tricolor [8]; application rate 20 g/ha) | Digitaria sanguinalis (Efficacy in %) (Digitaria sanguinalis)
10%: Oryza sativa (Efficacy in %) (Oryza sativa; application rate 5 g/ha)
80%: Alopecurus myosuroides (Efficacy in %) (Alopecurus myosuroides [9]) | Lolium rigidum (Efficacy in %) (Lolium rigidum [12]; application rate 20 g/ha)

COC(=O)CCOC(=O)C(C)(C)Sc1cc(-n2c(=O)cc(C(F)(F)F)n(C)c2=O)c(F)cc1Cl [I.46-2]
100%: Abutilon theophrasti (Efficacy in %) (Abutilon theophrasti [1]; application rate 80 g/ha) | Amaranthus retroflexus (Efficacy in %) (Amaranthus retroflexus [2]; application rate 80 g/ha) | Echinochloa crus-galli (Efficacy in %) (Echinochloa crus-galli [10]; application rate 80 g/ha) | Matricaria inodora (Efficacy in %) (Matricaria inodora [11]; application rate 20 g/ha) | Pharbitis purpurea (Efficacy in %) (Pharbitis purpurea [3]; application rate 80 g/ha) | Polygonum convolvulus (Efficacy in %) (Polygonum convolvulus [4]; application rate 20 g/ha) | Setaria viridis (Efficacy in %) (Setaria viridis [5]; application rate 80 g/ha) | Abutilon theophrasti (Efficacy in %) (Abutilon theophrasti [13]) | Amaranthus retroflexus (Efficacy in %) (Amaranthus retroflexus [15]) | Echinochloa crus-galli (Efficacy in %) (Echinochloa crus-galli [16]) | Lolium rigidum (Efficacy in %) (Lolium rigidum [17]) | Pharbitis purpurea (Efficacy in %) (Pharbitis purpurea [18]) | Polygonum convolvulus (Efficacy in %) (Polygonum convolvulus [19]) | Setaria viridis (Efficacy in %) (Setaria viridis [20]) | Stellaria media (Efficacy in %) (Stellaria media [21]) | Veronica persica (Efficacy in %) (Veronica persica [22]) | Matricaria inodora (Efficacy in %) (Matricaria inodora [24])
80%: Stellaria media (Efficacy in %) (Stellaria media [6]; application rate 80 g/ha) | Veronica persica (Efficacy in %) (Veronica persica [7]; application rate 80 g/ha) | Viola tricolor (Efficacy in %) (Viola tricolor [8]; application rate 80 g/ha)
20%: Glycine max (Efficacy in %) (Glycine max) | Oryza sativa (Efficacy in %) (Oryza sativa; application rate 80 g/ha) | Triticum aestivum (Efficacy in %) (Triticum aestivum; application rate 20 g/ha) | Zea mays (Efficacy in %) (Zea mays; application rate 20 g/ha)
90%: Alopecurus myosuroides (Efficacy in %) (Alopecurus myosuroides [14])

CCOC(=O)COC(=O)C(CC)Sc1cc(-n2c(=O)cc(C(F)(F)F)n(C)c2=O)c(F)cc1Cl (centres unmarked) [I.2-43, 2-Ethoxy-2-oxoethyl 2-({2-chloro-4-fluoro-5-[3-methyl-2,6-dioxo-4-(trifluoromethyl)-3,6-dihydropyrimidin-1(2H)-yl]phenyl}sulfanyl)butanoate]
10%: Triticum aestivum (Efficacy in %) (Triticum aestivum; application rate 20 g/ha)
20%: Glycine max (Efficacy in %) (Glycine max) | Oryza sativa (Efficacy in %) (Oryza sativa; application rate 20 g/ha) | Zea mays (Efficacy in %) (Zea mays; application rate 20 g/ha)
100%: Abutilon theophrasti (Efficacy in %) (Abutilon theophrasti [1]; application rate 20 g/ha) | Amaranthus retroflexus (Efficacy in %) (Amaranthus retroflexus [2]; application rate 20 g/ha) | Echinochloa crus-galli (Efficacy in %) (Echinochloa crus-galli [10]; application rate 20 g/ha) | Matricaria inodora (Efficacy in %) (Matricaria inodora [11]; application rate 20 g/ha) | Pharbitis purpurea (Efficacy in %) (Pharbitis purpurea [3]; application rate 20 g/ha) | Polygonum convolvulus (Efficacy in %) (Polygonum convolvulus [4]; application rate 20 g/ha) | Setaria viridis (Efficacy in %) (Setaria viridis [5]; application rate 20 g/ha) | Stellaria media (Efficacy in %) (Stellaria media [6]; application rate 20 g/ha) | Veronica persica (Efficacy in %) (Veronica persica [7]; application rate 20 g/ha) | Viola tricolor (Efficacy in %) (Viola tricolor [8]; application rate 20 g/ha)
